We go through eight compounds from patent US20050282743A1, “Molecular interactions in cells” (Arbor Vita Corporation, priority 2001, published 2005).

Ends that are not written are not given here. Peptide text beside a SMILES is read from it. * marks the point of attachment. Biotin = O=C1N[C@H]2[C@H](CS[C@H]2CCCCC(=O)*)N1

Common to all, as to assay: G' assay (10 uM PL peptide), results of TABLE 7 and TABLE 12
Format in all cases: binding

The target in experiment [1] is T1, PDZ protein (GST-PDZ fusion) (Homo sapiens, UniProt Q12923).
T1 construct: made in house; host or cells: E. coli (DH5alpha, BL21 or JM109)
The essentials: (§1)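 Biotinylated PL peptides at 10 uM (vs 20 uM in G^0 assay) bound to GST-PDZ fusions; PDZ protein at 5 ug/ml unless another concentration listed. Bound peptide read as A450 nm, classified 0–5 (0 = A450 0; 5 = A450 >4 repeated).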

Experiment [2] concerns the target T2, PDZ protein (GST-PDZ fusion) (Homo sapiens, UniProt Q5TCQ9).
T2 construct: made in house; host or cells: E. coli (DH5alpha, BL21 or JM109)
T2 sequence (Q5TCQ9 1-1481): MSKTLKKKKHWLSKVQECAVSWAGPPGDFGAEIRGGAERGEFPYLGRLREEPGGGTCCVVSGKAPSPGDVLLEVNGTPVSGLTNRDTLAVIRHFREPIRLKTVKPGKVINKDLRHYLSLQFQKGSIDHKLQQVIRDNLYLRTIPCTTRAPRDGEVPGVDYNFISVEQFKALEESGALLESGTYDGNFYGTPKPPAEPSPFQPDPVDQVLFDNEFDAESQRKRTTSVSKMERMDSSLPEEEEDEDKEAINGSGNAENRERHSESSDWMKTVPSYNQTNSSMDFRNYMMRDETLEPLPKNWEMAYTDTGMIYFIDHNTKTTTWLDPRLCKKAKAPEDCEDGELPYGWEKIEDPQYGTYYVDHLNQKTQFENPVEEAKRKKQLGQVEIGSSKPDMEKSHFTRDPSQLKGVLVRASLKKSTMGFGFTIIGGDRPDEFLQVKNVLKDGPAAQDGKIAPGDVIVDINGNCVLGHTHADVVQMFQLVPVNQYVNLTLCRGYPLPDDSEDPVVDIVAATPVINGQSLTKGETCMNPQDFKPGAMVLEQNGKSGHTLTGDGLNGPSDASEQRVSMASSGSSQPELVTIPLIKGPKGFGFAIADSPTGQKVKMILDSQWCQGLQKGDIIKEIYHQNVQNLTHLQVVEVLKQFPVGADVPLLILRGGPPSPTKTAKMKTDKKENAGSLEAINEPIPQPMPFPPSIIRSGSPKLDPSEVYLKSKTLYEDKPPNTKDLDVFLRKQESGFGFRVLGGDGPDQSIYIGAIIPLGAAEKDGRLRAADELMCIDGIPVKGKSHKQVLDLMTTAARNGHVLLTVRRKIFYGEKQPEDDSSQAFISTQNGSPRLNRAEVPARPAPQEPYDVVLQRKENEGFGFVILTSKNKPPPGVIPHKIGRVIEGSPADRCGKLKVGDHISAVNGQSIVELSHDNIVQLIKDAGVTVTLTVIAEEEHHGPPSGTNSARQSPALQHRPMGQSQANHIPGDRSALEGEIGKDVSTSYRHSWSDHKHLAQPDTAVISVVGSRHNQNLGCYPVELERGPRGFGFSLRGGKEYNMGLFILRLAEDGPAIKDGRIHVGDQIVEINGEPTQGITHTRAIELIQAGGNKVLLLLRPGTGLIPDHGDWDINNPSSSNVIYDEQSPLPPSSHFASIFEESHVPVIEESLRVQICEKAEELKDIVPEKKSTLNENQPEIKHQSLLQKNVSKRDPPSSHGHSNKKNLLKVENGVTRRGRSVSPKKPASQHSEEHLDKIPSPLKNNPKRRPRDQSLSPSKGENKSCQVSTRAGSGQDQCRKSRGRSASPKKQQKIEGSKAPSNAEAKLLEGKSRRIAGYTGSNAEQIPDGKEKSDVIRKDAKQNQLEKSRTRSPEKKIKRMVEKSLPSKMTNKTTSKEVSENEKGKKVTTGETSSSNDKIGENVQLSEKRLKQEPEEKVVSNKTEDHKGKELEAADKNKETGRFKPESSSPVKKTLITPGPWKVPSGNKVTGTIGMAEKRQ
In a few lines: as §1

In experiment [3] the target is T3, PDZ protein (GST-PDZ fusion) (Homo sapiens, UniProt Q6P0Q8).
T3 construct: made in house; host or cells: E. coli (DH5alpha, BL21 or JM109)
In a few lines: as §1

For experiment [4], the system named is PDZ protein (GST-PDZ fusion). The essentials: as §1
Setting [5] is: PDZ KIAA807, PDZ Domain not given.
The mark [6] stands for this setting: PDZ HEMBA 1003117, PDZ Domain 1.

T3 sequence (Q6P0Q8 whole entry, the tested form may be a part): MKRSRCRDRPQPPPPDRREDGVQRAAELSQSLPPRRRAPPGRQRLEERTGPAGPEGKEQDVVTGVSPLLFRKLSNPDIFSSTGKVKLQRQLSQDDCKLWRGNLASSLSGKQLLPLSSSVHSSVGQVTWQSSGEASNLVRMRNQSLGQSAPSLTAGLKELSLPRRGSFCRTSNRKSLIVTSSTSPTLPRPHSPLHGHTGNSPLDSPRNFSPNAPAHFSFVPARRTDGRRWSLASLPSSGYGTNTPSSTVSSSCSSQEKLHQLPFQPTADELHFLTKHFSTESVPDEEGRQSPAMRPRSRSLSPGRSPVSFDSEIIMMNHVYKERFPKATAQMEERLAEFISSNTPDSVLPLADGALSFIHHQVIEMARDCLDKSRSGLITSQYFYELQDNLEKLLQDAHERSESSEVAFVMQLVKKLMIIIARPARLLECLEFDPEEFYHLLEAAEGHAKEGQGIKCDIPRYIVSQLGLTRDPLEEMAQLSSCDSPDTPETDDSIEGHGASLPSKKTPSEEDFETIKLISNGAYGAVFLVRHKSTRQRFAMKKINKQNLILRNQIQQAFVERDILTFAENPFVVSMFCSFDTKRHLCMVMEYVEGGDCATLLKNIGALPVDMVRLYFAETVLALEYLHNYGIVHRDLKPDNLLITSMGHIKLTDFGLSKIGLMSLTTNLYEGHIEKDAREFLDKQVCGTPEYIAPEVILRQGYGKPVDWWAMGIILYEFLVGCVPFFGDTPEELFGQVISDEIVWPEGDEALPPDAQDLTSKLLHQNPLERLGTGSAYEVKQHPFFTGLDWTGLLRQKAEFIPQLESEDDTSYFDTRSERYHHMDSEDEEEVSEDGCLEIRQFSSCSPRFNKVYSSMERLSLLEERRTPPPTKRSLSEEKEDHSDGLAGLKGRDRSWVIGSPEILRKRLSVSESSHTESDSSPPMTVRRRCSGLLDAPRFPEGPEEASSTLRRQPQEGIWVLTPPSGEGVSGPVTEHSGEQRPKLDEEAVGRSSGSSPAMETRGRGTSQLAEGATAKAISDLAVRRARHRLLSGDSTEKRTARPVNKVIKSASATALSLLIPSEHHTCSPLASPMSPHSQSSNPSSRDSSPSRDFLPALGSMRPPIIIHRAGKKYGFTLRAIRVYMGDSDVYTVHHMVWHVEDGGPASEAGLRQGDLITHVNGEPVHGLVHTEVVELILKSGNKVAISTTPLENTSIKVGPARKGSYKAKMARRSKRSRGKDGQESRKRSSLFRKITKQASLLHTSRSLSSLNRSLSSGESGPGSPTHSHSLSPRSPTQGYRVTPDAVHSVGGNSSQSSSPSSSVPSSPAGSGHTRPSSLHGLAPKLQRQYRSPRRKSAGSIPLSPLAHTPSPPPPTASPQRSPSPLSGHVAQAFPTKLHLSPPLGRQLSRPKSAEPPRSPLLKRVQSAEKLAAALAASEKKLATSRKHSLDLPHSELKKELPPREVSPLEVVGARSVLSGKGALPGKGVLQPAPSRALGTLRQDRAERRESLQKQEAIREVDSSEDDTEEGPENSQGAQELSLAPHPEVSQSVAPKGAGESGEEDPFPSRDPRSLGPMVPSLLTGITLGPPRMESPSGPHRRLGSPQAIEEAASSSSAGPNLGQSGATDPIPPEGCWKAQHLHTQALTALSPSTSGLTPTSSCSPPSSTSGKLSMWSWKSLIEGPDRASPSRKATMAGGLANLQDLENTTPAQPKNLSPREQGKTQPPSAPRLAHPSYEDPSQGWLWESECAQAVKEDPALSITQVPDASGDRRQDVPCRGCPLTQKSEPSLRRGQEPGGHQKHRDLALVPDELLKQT
T1 sequence (Q12923 whole entry, the tested form may be a part): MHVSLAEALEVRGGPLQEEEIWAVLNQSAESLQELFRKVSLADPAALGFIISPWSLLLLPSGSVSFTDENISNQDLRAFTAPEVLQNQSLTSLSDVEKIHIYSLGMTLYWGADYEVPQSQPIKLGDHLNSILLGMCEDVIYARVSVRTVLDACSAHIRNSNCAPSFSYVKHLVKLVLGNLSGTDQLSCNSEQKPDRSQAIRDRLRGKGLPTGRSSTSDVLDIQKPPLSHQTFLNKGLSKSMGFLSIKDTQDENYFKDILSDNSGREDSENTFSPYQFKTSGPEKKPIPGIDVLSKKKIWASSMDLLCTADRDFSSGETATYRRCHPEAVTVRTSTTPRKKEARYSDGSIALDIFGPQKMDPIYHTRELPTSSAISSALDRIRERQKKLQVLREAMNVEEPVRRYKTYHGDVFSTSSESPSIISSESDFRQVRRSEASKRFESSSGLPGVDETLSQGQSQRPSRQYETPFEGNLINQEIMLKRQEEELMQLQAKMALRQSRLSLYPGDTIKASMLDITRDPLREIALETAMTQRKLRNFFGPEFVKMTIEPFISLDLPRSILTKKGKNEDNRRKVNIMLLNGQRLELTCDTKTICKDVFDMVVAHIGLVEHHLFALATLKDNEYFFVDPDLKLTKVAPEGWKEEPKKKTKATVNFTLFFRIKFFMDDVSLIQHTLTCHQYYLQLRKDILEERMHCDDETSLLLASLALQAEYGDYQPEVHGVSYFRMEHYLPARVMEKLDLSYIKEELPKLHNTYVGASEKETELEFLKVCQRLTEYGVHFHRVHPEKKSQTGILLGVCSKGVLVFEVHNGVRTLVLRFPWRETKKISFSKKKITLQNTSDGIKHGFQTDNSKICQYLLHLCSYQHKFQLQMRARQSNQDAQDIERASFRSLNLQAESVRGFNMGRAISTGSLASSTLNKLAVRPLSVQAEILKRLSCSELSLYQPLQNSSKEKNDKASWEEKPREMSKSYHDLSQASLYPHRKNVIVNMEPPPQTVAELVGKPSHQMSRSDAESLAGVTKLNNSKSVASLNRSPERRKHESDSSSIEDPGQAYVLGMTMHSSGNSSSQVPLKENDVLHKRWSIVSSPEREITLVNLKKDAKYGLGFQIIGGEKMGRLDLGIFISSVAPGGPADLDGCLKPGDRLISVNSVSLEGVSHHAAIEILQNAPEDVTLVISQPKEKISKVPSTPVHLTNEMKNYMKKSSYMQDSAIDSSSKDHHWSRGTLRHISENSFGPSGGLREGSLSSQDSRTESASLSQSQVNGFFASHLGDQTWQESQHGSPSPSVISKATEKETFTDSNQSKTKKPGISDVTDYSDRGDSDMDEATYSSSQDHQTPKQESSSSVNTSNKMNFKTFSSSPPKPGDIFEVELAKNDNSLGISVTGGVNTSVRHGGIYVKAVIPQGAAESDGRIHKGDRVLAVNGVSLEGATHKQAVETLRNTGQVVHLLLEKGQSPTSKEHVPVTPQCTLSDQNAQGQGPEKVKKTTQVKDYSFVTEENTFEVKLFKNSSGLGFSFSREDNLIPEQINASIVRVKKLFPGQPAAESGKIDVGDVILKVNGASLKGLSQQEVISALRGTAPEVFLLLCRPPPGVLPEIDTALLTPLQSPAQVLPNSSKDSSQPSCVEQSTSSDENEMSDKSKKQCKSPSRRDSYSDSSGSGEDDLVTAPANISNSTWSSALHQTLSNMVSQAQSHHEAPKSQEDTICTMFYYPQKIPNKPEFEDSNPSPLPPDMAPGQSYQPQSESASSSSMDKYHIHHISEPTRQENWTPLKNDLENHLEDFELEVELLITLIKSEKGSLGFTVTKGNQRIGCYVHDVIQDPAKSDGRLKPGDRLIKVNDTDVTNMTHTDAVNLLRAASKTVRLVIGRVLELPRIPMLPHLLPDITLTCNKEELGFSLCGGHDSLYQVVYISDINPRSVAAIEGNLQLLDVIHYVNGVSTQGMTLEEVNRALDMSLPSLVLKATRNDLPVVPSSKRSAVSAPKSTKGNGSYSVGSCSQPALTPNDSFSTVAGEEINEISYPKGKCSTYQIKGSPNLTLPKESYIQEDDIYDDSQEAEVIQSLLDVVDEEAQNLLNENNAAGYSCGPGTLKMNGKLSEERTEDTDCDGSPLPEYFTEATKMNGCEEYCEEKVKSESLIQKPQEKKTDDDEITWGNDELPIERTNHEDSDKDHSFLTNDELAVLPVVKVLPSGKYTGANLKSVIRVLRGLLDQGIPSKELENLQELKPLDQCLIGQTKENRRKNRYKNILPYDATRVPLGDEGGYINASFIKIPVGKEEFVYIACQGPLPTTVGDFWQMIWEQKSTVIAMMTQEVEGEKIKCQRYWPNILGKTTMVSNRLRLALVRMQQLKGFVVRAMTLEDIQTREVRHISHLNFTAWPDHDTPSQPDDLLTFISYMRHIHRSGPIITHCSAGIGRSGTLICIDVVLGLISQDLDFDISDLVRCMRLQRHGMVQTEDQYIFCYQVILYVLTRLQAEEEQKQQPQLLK

Regarding “VHDAESSDEDGYDWGPATDL (Biotin-VHDAESSDEDGYDWGPATDL) [zona occludens 3 (ZO-3)]”, the Classification in experiment [1] (PDZ PTPL-1, PDZ Domain 2) is reported as 2 (A450 nm 1-2); in experiment [2] (PDZ KIAA1634, PDZ Domain 5), 1 (A450 nm 0-1); in experiment [3] (PDZ KIAA0807(S), PDZ Domain 1) it was 5 (A450 nm of 4 more than 2× repeated); in experiment [3] (setting [5]), 5 (A450 nm of 4 more than 2× repeated); in experiment [4] (PDZ BAI-1, PDZ Domain 6) it was 2 (A450 nm 1-2); in experiment [4] (PDZ Novel PDZ, PDZ Domain 1), 1 (A450 nm 0-1). In addition, in experiment [4] (PDZ SHANK, PDZ Domain 1), the Classification is 1 (A450 nm 0-1).

For the compound `CC[C@H](C)[C@H](NC(=O)[C@H](CCC(N)=O)NC(=O)[C@@H](NC(=O)[C@H](Cc1c[nH]cn1)NC(=O)[C@H](CCC(N)=O)NC(=O)[C@H](CC(=O)O)NC(=O)[C@H](CCC(=O)O)NC(=O)[C@H](CC(=O)O)NC(=O)[C@H](Cc1ccccc1)NC(=O)[C@@H]1CCCN1C(=O)[C@H](CCC(=O)O)NC(=O)[C@H](CC(N)=O)NC(=O)[C@H](CCC(=O)O)NC(=O)[C@@H]1CCCN1C(=O)[C@H](CC(=O)O)NC(=O)[C@H](CO)NC(=O)[C@H](CC(=O)O)NC(=O)CCCC[C@@H]1SC[C@@H]2NC(=O)N[C@@H]21)[C@@H](C)O)C(=O)N[C@H](C(=O)N[C@@H](CCCCN)C(=O)N[C@H](C(=O)O)C(C)C)[C@@H](C)O` [PTEN], the Classification is on record as 4 (A450 nm 3-4) in experiment [1] (PDZ PTPL-1, PDZ Domain 2); 1 (A450 nm 0-1) in experiment [1] (PDZ PTPL-1, PDZ Domain 4); 5 (A450 nm of 4 more than 2× repeated) in experiment [2] (PDZ KIAA1634, PDZ Domain 2); 5 (A450 nm of 4 more than 2× repeated) in experiment [3] (PDZ KIAA0807(S), PDZ Domain 1); 5 (A450 nm of 4 more than 2× repeated) in experiment [3] (setting [5]); 2 (A450 nm 1-2) in experiment [4] (PDZ BAI-1, PDZ Domain 3). For the same compound, the Classification in experiment [4] (PDZ FLJ 00011, PDZ Domain 1) is listed as 3 (A450 nm 2-3); in experiment [4] (setting [6]), 1 (A450 nm 0-1); in experiment [4] (PDZ SHANK, PDZ Domain 1) it was 3 (A450 nm 2-3).

In the case of `CC[C@H](C)[C@H](NC(=O)[C@H](Cc1c[nH]cn1)NC(=O)[C@H](C)NC(=O)[C@H](C)NC(=O)[C@H](CO)NC(=O)[C@@H]1CCCN1C(=O)[C@H](CCCNC(=N)N)NC(=O)[C@H](CC(=O)O)NC(=O)[C@H](CCCCN)NC(=O)[C@@H]1CCCN1C(=O)[C@H](CC(=O)O)NC(=O)[C@H](CCC(=O)O)NC(=O)CCCC[C@@H]1SC[C@@H]2NC(=O)N[C@@H]21)C(=O)N[C@H](C(=O)N[C@@H](CCC(=O)O)C(=O)N[C@@H](C)C(=O)N[C@@H](CC(C)C)C(=O)N[C@@H](CCC(=O)O)C(=O)N[C@H](C(=O)N[C@@H](CC(=O)O)C(=O)N[C@H](C(=O)O)C(C)C)[C@@H](C)O)C(C)C` [PDZ-binding kinase (PBK)] (Biotin-EDPKDRPSAAHIVEALETDV-OH; C-terminus assumed), the Classification is recorded as 4 (A450 nm 3-4) in experiment [1] (PDZ PTPL-1, PDZ Domain 2); 3 (A450 nm 2-3) in experiment [2] (PDZ KIAA1634, PDZ Domain 2); 1 (A450 nm 0-1) in experiment [4] (PDZ BAI-1, PDZ Domain 3).

For the compound `CC(C)C[C@H](NC(=O)[C@H](CC(C)C)NC(=O)[C@@H](NC(=O)[C@H](CC(=O)O)NC(=O)CCCC[C@@H]1SC[C@@H]2NC(=O)N[C@@H]21)[C@@H](C)O)C(=O)N[C@@H](CC(C)C)C(=O)N[C@H](C(=O)N[C@@H](CCC(=O)O)C(=O)N[C@@H](CC(N)=O)C(=O)N[C@@H](CCC(=O)O)C(=O)NCC(=O)N[C@@H](CC(=O)O)C(=O)N[C@@H](CCCCN)C(=O)N[C@H](C(=O)N[C@@H](CCC(=O)O)C(=O)N[C@@H](CCC(=O)O)C(=O)N[C@@H](CCC(N)=O)C(=O)N[C@H](C(=O)N[C@@H](CO)C(=O)N[C@@H](Cc1ccc(O)cc1)C(=O)N[C@H](C(=O)O)C(C)C)C(C)C)[C@@H](C)O)[C@@H](C)O` [5H2B_HUMAN] (Biotin-DTLLLTENEGDKTEEQVSYV-OH; C-terminus assumed), the Classification in experiment [1] (PDZ PTPL-1, PDZ Domain 2) is 5 (A450 nm of 4 more than 2× repeated); in experiment [1] (PDZ PTPL-1, PDZ Domain 4), 2 (A450 nm 1-2); in experiment [2] (PDZ KIAA1634, PDZ Domain 2), 5 (A450 nm of 4 more than 2× repeated); in experiment [3] (PDZ KIAA807), 1 (A450 nm 0-1); in experiment [3] (PDZ KIAA0807(S), PDZ Domain 1) it was 1 (A450 nm 0-1); in experiment [4] (PDZ BAI-1, PDZ Domain 3) it was 4 (A450 nm 3-4). In addition, the Classification in experiment [4] (setting [6]) was 1 (A450 nm 0-1).

On to “SLKPGTVLPPPPYRHRNTVV (Biotin-SLKPGTVLPPPPYRHRNTVV) [ErbB-4 receptor]”, for which the Classification in experiment [1] (PDZ PTPL-1, PDZ Domain 2) was 2 (A450 nm 1-2); in experiment [2] (PDZ KIAA1634, PDZ Domain 2), 1 (A450 nm 0-1); in experiment [4] (PDZ BAI-1, PDZ Domain 3), 1 (A450 nm 0-1).

For the compound “KTMPAAMFRLLTGQETPLYI (Biotin-KTMPAAMFRLLTGQETPLYI) [MINT-2]”, the Classification in experiment [1] (PDZ PTPL-1, PDZ Domain 4) is 4 (A450 nm 3-4); in experiment [3] (PDZ KIAA0807(S), PDZ Domain 1), 4 (A450 nm 3-4); in experiment [3] (setting [5]), 3 (A450 nm 2-3); in experiment [4] (setting [6]) it was 3 (A450 nm 2-3).

As for `CC[C@H](C)[C@H](NC(=O)[C@H](Cc1ccc(O)cc1)NC(=O)[C@H](CC(C)C)NC(=O)[C@H](CCC(N)=O)NC(=O)[C@H](Cc1c[nH]cn1)NC(=O)[C@H](CO)NC(=O)[C@H](C)NC(=O)[C@H](CC(C)C)NC(=O)[C@@H](NC(=O)[C@H](CC(=O)O)NC(=O)[C@H](CCSC)NC(=O)[C@H](Cc1ccccc1)NC(=O)[C@@H]1CCCN1C(=O)[C@H](CCCNC(=N)N)NC(=O)[C@@H](NC(=O)[C@H](CC(C)C)NC(=O)[C@H](CC(N)=O)NC(=O)[C@H](CC(=O)O)NC(=O)[C@@H](NC(=O)[C@H](CO)NC(=O)CCCC[C@@H]1SC[C@@H]2NC(=O)N[C@@H]21)[C@@H](C)O)C(C)C)[C@@H](C)O)C(=O)O` [presenilin-2] (Biotin-STDNLVRPFMDTLASHQLYI-OH; C-terminus assumed), the Classification in experiment [1] (PDZ PTPL-1, PDZ Domain 4) is 2 (A450 nm 1-2); in experiment [3] (PDZ KIAA0807(S), PDZ Domain 1), 1 (A450 nm 0-1); in experiment [4] (setting [6]) it was 4 (A450 nm 3-4).

For the compound `CC[C@H](C)[C@H](NC(=O)[C@H](Cc1ccc(O)cc1)NC(=O)[C@@H](NC(=O)[C@@H]1CCCN1C(=O)[C@H](CCC(N)=O)NC(=O)[C@H](CCC(=O)O)NC(=O)[C@H](CCC(N)=O)NC(=O)[C@H](C)NC(=O)[C@@H](NC(=O)[C@H](CC(C)C)NC(=O)[C@H](CC(C)C)NC(=O)[C@H](CCCNC(=N)N)NC(=O)[C@H](Cc1ccc(O)cc1)NC(=O)[C@H](CCSC)NC(=O)[C@H](C)NC(=O)[C@H](C)NC(=O)[C@@H]1CCCN1C(=O)[C@H](CCSC)NC(=O)[C@@H](NC(=O)[C@H](CCCCN)NC(=O)CCCC[C@@H]1SC[C@@H]2NC(=O)N[C@@H]21)[C@@H](C)O)[C@@H](C)O)C(C)C)C(=O)O` [MINT-1] (Biotin-KTMPAAMYRLLTAQEQPVYI-OH; C-terminus assumed), the Classification in experiment [1] (PDZ PTPL-1, PDZ Domain 4) is on record as 5 (A450 nm of 4 more than 2× repeated); in experiment [3] (PDZ KIAA0807(S), PDZ Domain 1) it was 5 (A450 nm of 4 more than 2× repeated); in experiment [3] (setting [5]), 4 (A450 nm 3-4); in experiment [4] (setting [6]), 3 (A450 nm 2-3).
